The text below walks through data of US20220389061A1, “IMMUNOMODULATORS” (priority 2019, published 2022).

One may read the IC50 as the concentration that gives 50% inhibition.

SMILES strings stand for the structures. Starred links: 1 amine or outer side, 2 acyl side, 3 side chain; linkers in the order of their positions; H or OH if unused. Positions of bridges follow the written chain, without caps; N, C: chain ends. Non-standard residues stand in square brackets, D forms with d. Residues, ends and D or L forms follow the SMILES beside them. Groups on a side chain read outwards from the residue. *: point of attachment. Trp(1-CH2COOH) = N[C@@H](Cc1cn(CC(=O)O)c2ccccc12)C(=O)O; X66 = O=C([C@H](CCN/C(=N/c1ccccc1)c1ccccc1)N[*:1])[*:2]; X57 = O=C([C@H](CN/C(=N/c1ccccc1)c1ccccc1)N[*:1])[*:2]; X41 = N=C(NCC[C@H](N[*:1])C(=O)[*:2])c1ccccc1; X40 = N=C(NC[C@H](N[*:1])C(=O)[*:2])c1ccccc1; X13 = O=[N+]([O-])c1ccc(NC(=S)*)cc1; X50 = COc1cc(NC(=S)*)ccc1-c1cnco1; Hyp = O=C(O)[C@@H]1C[C@@H](O)CN1; X29 = c1ccc(Oc2ccc(N*)cc2)cc1; X36 = c1ccc(Oc2cccc(N*)c2)cc1; NMeNle = CCCC[C@H](NC)C(=O)O; X86 = CCOc1ccc(NC(=S)*)cc1; NMeA = CN[C@@H](C)C(=O)O; Dab = NCC[C@H](N)C(=O)O; Dap = NC[C@H](N)C(=O)O; X21 = S=C(Nc1ccccn1)*; CO = O=C([*:1])[*:2]

T1 sequence (Q9NZQ7 18-239): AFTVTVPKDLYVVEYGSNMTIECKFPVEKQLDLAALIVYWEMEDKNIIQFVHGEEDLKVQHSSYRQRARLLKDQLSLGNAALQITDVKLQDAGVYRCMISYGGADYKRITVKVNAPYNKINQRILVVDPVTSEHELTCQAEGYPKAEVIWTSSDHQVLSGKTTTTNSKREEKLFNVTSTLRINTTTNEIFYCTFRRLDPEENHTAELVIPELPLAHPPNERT

The first test has as its target T1, PD-1/PD-L1 (Homo sapiens, UniProt Q9NZQ7).
T1 construct: TVMV protease site linker (C); made in house; host or cells: HEK293T cells
As to the kind of experiment: PD-1/PD-L1 Homogenous Time-Resolved Fluorescence (HTRF) binding assay.
Details: not given
The text has this:
The ability of the compounds of formula (I) to bind to PD-L1 was investigated using a PD-1/PD-L1 Homogenous Time-Resolved Fluorescence (HTRF) binding assay.
The interaction of PD-1 and PD-L1 can be assessed using soluble, purified preparations of the extracellular domains of the two proteins. The PD-1 and PD-L1 protein extracellular domains were expressed as fusion proteins with detection tags, for PD-1, the tag was the Fc portion of Immunoglobulin (PD-1-Ig) and for PD-L1 it was the 6 histidine motif (PD-L1-His). All binding studies were performed in an HTRF assay buffer consisting of dPBS supplemented with 0.1% […] bovine serum albumin and 0.05% (v/v) Tween-20. For the h/PD-L1-His binding assay, inhibitors were pre-incubated with PD-L1-His (10 nM final) for 15 m in 4 μl of assay buffer, followed by addition of PD-1-Ig (20 nM final) in 1 μl of assay buffer and further incubation for 15 m. HTRF detection was achieved using europium crypate-labeled anti-Ig (1 nM final) and allophycocyanin (APC) labeled anti-His (20 nM final). Antibodies were diluted in HTRF detection buffer and 5 μl was dispensed on top of the binding reaction. […] Additional binding assays were established between the human proteins PD-1-Ig/PD-L2-His (20 & 5 nM, respectively) and CD80-His/PD-L1-Ig (100 & 10 nM, respectively). […]
For orientation: Time-resolved FRET reads energy transfer from a long-lived donor to a nearby acceptor.
`CCCC[C@H]1C(=O)N(C)[C@@H](CCCC)C(=O)N[C@@H](CC(C)C)C(=O)N[C@H](C(=O)NCC(N)=O)CSCC(=O)N[C@@H](Cc2ccc(O)cc2)C(=O)N(C)[C@@H](C)C(=O)N[C@@H](CC(N)=O)C(=O)N2CCC[C@H]2C(=O)N[C@@H](CNC(=S)Nc2ccc([N+](=O)[O-])cc2)C(=O)N[C@@H](CC(C)C)C(=O)N2C[C@H](O)C[C@H]2C(=O)N[C@@H](Cc2c[nH]c3ccccc23)C(=O)N[C@@H](CCNC(=S)Nc2ccc([N+](=O)[O-])cc2)C(=O)N[C@@H](Cc2cn(CC(=O)O)c3ccccc23)C(=O)N1C` [Example 1025] ({CH2CO}-Y[NMeA]NP[Dap](X13)L[Hyp]W[Dab](X13)[Trp(1-CH2COOH)][NMeNle][NMeNle]LCG-NH2; thioether N-14) showed an IC50 of 0.8 nM.

The same test, now with this note: PD-L1-His 10 nM pre-incubated with inhibitor, PD-1-Ig 20 nM; read-out: HTRF IC50.
Consider `CCCC[C@H]1C(=O)N(C)[C@@H](CCCC)C(=O)N[C@@H](CC(C)C)C(=O)N[C@H](C(=O)NCC(N)=O)CSCC(=O)N[C@@H](Cc2ccc(O)cc2)C(=O)N(C)[C@@H](C)C(=O)N[C@@H](CC(N)=O)C(=O)N2CCC[C@H]2C(=O)N[C@@H](CN/C(=N/c2ccccc2)c2ccccc2)C(=O)N[C@@H](CC(C)C)C(=O)N2C[C@H](O)C[C@H]2C(=O)N[C@@H](Cc2c[nH]c3ccccc23)C(=O)N[C@@H](CCN/C(=N/c2ccccc2)c2ccccc2)C(=O)N[C@@H](Cc2cn(CC(=O)O)c3ccccc23)C(=O)N1C` [Example 1017] ({CH2CO}-Y[NMeA]NP[X57]L[Hyp]W[X66][Trp(1-CH2COOH)][NMeNle][NMeNle]LCG-NH2; thioether N-14), for which the IC50 amounted to 7.5 nM.

Take `CCCC[C@H]1C(=O)N(C)[C@@H](CCCC)C(=O)N[C@@H](CC(C)C)C(=O)N[C@H](C(=O)NCC(N)=O)CSCC(=O)N[C@@H](Cc2ccc(O)cc2)C(=O)N(C)[C@@H](C)C(=O)N[C@@H](CC(N)=O)C(=O)N2CCC[C@H]2C(=O)N[C@@H](CN/C(=N/c2ccccc2)c2ccccc2)C(=O)N[C@@H](CC(C)C)C(=O)N2C[C@H](O)C[C@H]2C(=O)N[C@@H](Cc2c[nH]c3ccccc23)C(=O)N[C@@H](CCN)C(=O)N[C@@H](Cc2cn(CC(=O)O)c3ccccc23)C(=O)N1C` [Example 1018] ({CH2CO}-Y[NMeA]NP[X57]L[Hyp]W[Dab][Trp(1-CH2COOH)][NMeNle][NMeNle]LCG-NH2; thioether N-14): the 50% inhibitory concentration (IC50) came out at 9.98 nM.

On to `CCCC[C@H]1C(=O)N(C)[C@@H](CCCC)C(=O)N[C@@H](CC(C)C)C(=O)N[C@H](C(=O)NCC(N)=O)CSCC(=O)N[C@@H](Cc2ccc(O)cc2)C(=O)N(C)[C@@H](C)C(=O)N[C@@H](CC(N)=O)C(=O)N2CCC[C@H]2C(=O)N[C@@H](CNC(=N)c2ccccc2)C(=O)N[C@@H](CC(C)C)C(=O)N2C[C@H](O)C[C@H]2C(=O)N[C@@H](Cc2c[nH]c3ccccc23)C(=O)N[C@@H](CCNC(=N)c2ccccc2)C(=O)N[C@@H](Cc2cn(CC(=O)O)c3ccccc23)C(=O)N1C` [Example 1019] ({CH2CO}-Y[NMeA]NP[X40]L[Hyp]W[X41][Trp(1-CH2COOH)][NMeNle][NMeNle]LCG-NH2; thioether N-14), for which the IC50 stood at 3.4 nM.

Take `CCCC[C@H]1C(=O)N(C)[C@@H](CCCC)C(=O)N[C@@H](CC(C)C)C(=O)N[C@H](C(=O)NCC(N)=O)CSCC(=O)N[C@@H](Cc2ccc(O)cc2)C(=O)N(C)[C@@H](C)C(=O)N[C@@H](CC(N)=O)C(=O)N2CCC[C@H]2C(=O)N[C@@H](CNC(=O)Nc2cccc(Oc3ccccc3)c2)C(=O)N[C@@H](CC(C)C)C(=O)N2C[C@H](O)C[C@H]2C(=O)N[C@@H](Cc2c[nH]c3ccccc23)C(=O)N[C@@H](CCNC(=O)Nc2cccc(Oc3ccccc3)c2)C(=O)N[C@@H](Cc2cn(CC(=O)O)c3ccccc23)C(=O)N1C` [Example 1020] ({CH2CO}-Y[NMeA]NP[Dap]([CO-X36])L[Hyp]W[Dab]([CO-X36])[Trp(1-CH2COOH)][NMeNle][NMeNle]LCG-NH2; thioether N-14): the IC50 is 24 nM.

As to `CCCC[C@H]1C(=O)N(C)[C@@H](CCCC)C(=O)N[C@@H](CC(C)C)C(=O)N[C@H](C(=O)NCC(N)=O)CSCC(=O)N[C@@H](Cc2ccc(O)cc2)C(=O)N(C)[C@@H](C)C(=O)N[C@@H](CC(N)=O)C(=O)N2CCC[C@H]2C(=O)N[C@@H](CNC(=S)Nc2ccccn2)C(=O)N[C@@H](CC(C)C)C(=O)N2C[C@H](O)C[C@H]2C(=O)N[C@@H](Cc2c[nH]c3ccccc23)C(=O)N[C@@H](CCNC(=S)Nc2ccccn2)C(=O)N[C@@H](Cc2cn(CC(=O)O)c3ccccc23)C(=O)N1C` [Example 1021] ({CH2CO}-Y[NMeA]NP[Dap](X21)L[Hyp]W[Dab](X21)[Trp(1-CH2COOH)][NMeNle][NMeNle]LCG-NH2; thioether N-14), the 50% inhibitory concentration (IC50) came out at 4.2 nM.

Consider `CCCC[C@H]1C(=O)N(C)[C@@H](CCCC)C(=O)N[C@@H](CC(C)C)C(=O)N[C@H](C(=O)NCC(N)=O)CSCC(=O)N[C@@H](Cc2ccc(O)cc2)C(=O)N(C)[C@@H](C)C(=O)N[C@@H](CC(N)=O)C(=O)N2CCC[C@H]2C(=O)N[C@@H](CNC(=O)Nc2ccc(Oc3ccccc3)cc2)C(=O)N[C@@H](CC(C)C)C(=O)N2C[C@H](O)C[C@H]2C(=O)N[C@@H](Cc2c[nH]c3ccccc23)C(=O)N[C@@H](CCNC(=O)Nc2ccc(Oc3ccccc3)cc2)C(=O)N[C@@H](Cc2cn(CC(=O)O)c3ccccc23)C(=O)N1C` [Example 1023] ({CH2CO}-Y[NMeA]NP[Dap]([CO-X29])L[Hyp]W[Dab]([CO-X29])[Trp(1-CH2COOH)][NMeNle][NMeNle]LCG-NH2; thioether N-14), for which the IC50 came out at 32 nM.

As for `CCCC[C@H]1C(=O)N(C)[C@@H](CCCC)C(=O)N[C@@H](CC(C)C)C(=O)N[C@H](C(=O)NCC(N)=O)CSCC(=O)N[C@@H](Cc2ccc(O)cc2)C(=O)N(C)[C@@H](C)C(=O)N[C@@H](CC(N)=O)C(=O)N2CCC[C@H]2C(=O)N[C@@H](CNC(=S)Nc2ccc([N+](=O)[O-])cc2)C(=O)N[C@@H](CC(C)C)C(=O)N2C[C@H](O)C[C@H]2C(=O)N[C@@H](Cc2c[nH]c3ccccc23)C(=O)N[C@@H](CCN)C(=O)N[C@@H](Cc2cn(CC(=O)O)c3ccccc23)C(=O)N1C` [Example 1024] ({CH2CO}-Y[NMeA]NP[Dap](X13)L[Hyp]W[Dab][Trp(1-CH2COOH)][NMeNle][NMeNle]LCG-NH2; thioether N-14), the IC50 is 3.2 nM.

As to `CCCC[C@H]1C(=O)N(C)[C@@H](CCCC)C(=O)N[C@@H](CC(C)C)C(=O)N[C@H](C(=O)NCC(N)=O)CSCC(=O)N[C@@H](Cc2ccc(O)cc2)C(=O)N(C)[C@@H](C)C(=O)N[C@@H](CC(N)=O)C(=O)N2CCC[C@H]2C(=O)N[C@@H](CNC(=S)Nc2ccc(OCC)cc2)C(=O)N[C@@H](CC(C)C)C(=O)N2C[C@H](O)C[C@H]2C(=O)N[C@@H](Cc2c[nH]c3ccccc23)C(=O)N[C@@H](CCN)C(=O)N[C@@H](Cc2cn(CC(=O)O)c3ccccc23)C(=O)N1C` [Example 1026] ({CH2CO}-Y[NMeA]NP[Dap](X86)L[Hyp]W[Dab][Trp(1-CH2COOH)][NMeNle][NMeNle]LCG-NH2; thioether N-14), the IC50 came to 4.3 nM.

As for `CCCC[C@H]1C(=O)N(C)[C@@H](CCCC)C(=O)N[C@@H](CC(C)C)C(=O)N[C@H](C(=O)NCC(N)=O)CSCC(=O)N[C@@H](Cc2ccc(O)cc2)C(=O)N(C)[C@@H](C)C(=O)N[C@@H](CC(N)=O)C(=O)N2CCC[C@H]2C(=O)N[C@@H](CNC(=S)Nc2ccc(OCC)cc2)C(=O)N[C@@H](CC(C)C)C(=O)N2C[C@H](O)C[C@H]2C(=O)N[C@@H](Cc2c[nH]c3ccccc23)C(=O)N[C@@H](CCNC(=S)Nc2ccc(OCC)cc2)C(=O)N[C@@H](Cc2cn(CC(=O)O)c3ccccc23)C(=O)N1C` [Example 1027] ({CH2CO}-Y[NMeA]NP[Dap](X86)L[Hyp]W[Dab](X86)[Trp(1-CH2COOH)][NMeNle][NMeNle]LCG-NH2; thioether N-14), the concentration for half-maximal inhibition (IC50) came to 3.7 nM.

`CCCC[C@H]1C(=O)N(C)[C@@H](CCCC)C(=O)N[C@@H](CC(C)C)C(=O)N[C@H](C(=O)NCC(N)=O)CSCC(=O)N[C@@H](Cc2ccc(O)cc2)C(=O)N(C)[C@@H](C)C(=O)N[C@@H](CC(N)=O)C(=O)N2CCC[C@H]2C(=O)N[C@@H](CNC(=S)Nc2ccc(-c3cnco3)c(OC)c2)C(=O)N[C@@H](CC(C)C)C(=O)N2C[C@H](O)C[C@H]2C(=O)N[C@@H](Cc2c[nH]c3ccccc23)C(=O)N[C@@H](CCN)C(=O)N[C@@H](Cc2cn(CC(=O)O)c3ccccc23)C(=O)N1C` [Example 1028] ({CH2CO}-Y[NMeA]NP[Dap](X50)L[Hyp]W[Dab][Trp(1-CH2COOH)][NMeNle][NMeNle]LCG-NH2; thioether N-14): the IC50 worked out at 4.4 nM.

As to `CCCC[C@H]1C(=O)N(C)[C@@H](CCCC)C(=O)N[C@@H](CC(C)C)C(=O)N[C@H](C(=O)NCC(N)=O)CSCC(=O)N[C@@H](Cc2ccc(O)cc2)C(=O)N(C)[C@@H](C)C(=O)N[C@@H](CC(N)=O)C(=O)N2CCC[C@H]2C(=O)N[C@@H](CNC(=S)Nc2ccc(-c3cnco3)c(OC)c2)C(=O)N[C@@H](CC(C)C)C(=O)N2C[C@H](O)C[C@H]2C(=O)N[C@@H](Cc2c[nH]c3ccccc23)C(=O)N[C@@H](CCNC(=S)Nc2ccc(-c3cnco3)c(OC)c2)C(=O)N[C@@H](Cc2cn(CC(=O)O)c3ccccc23)C(=O)N1C` [Example 1029] ({CH2CO}-Y[NMeA]NP[Dap](X50)L[Hyp]W[Dab](X50)[Trp(1-CH2COOH)][NMeNle][NMeNle]LCG-NH2; thioether N-14), the half-inhibitory concentration (IC50) stood at 3.1 nM.
